SMILES strings stand for the structures.

For this experiment, the system named is male Sprague Dawley rats. Kind of experiment: Tetradic encounter test. It is filed as in vivo, rat. The settings on record: acute. The procedure:
Example 130b was dissolved in 0.5% Natrosol and administered acutely p.o. (gavage) 40 minutes before behavioural testing. Example 130b was administered in doses of 0.3, 1.0 and 3.0 mg/kg in a volume of 5 ml/kg, each.
Chlordiazepoxide was dissolved in 0.9% NaCl and administered acutely i.p. 30 minutes before behavioural testing with a dose of 3 mg/kg in a volume of 1 ml/kg (test group TG 2, see below). The solution was prepared freshly every day.
216 male Sprague Dawley rats. The animals were 6 weeks old at the start of the study. They were housed in groups of 4 animals (“acute animals”) or in single cages (“chronic animals”) at 12 h/12 h light/dark (start of the light phase at 2 a.m.), 20° C., 60% rH. Animals were provided by Elevage Janvier, France.
Animals were kept in group cages until compound administration. Each two animals derived from the same home cage and were treated the same way. During the time from compound administration to the beginning of the test, animals were kept in single cages for 40 minutes.
The tetradic encounter test was conducted according to the protocol of Wolffgramm (1990). Four rats were placed for 15 minutes in an open field arena of 1 m×1 m; all four animals of an encounter group were treated in the same way, they received either test compound, reference compound, or vehicle. Each two animals were from the same home cage. The open field was illuminated by dim red light (3-4 Lux). Rats were familiar with the open field and their encounter partners by means of three prior training sessions (no compound administration). Testing (compound administration) started at 2:20 p.m. (dark phase). All animals were marked individually by means of black symbols on their back. Behaviour was recorded on videotapes. Each animal was tested once.
Raw data were provided as videotapes and protocol sheets of application and test time. From the videotapes the trajectory of the animal's movement was tracked and coordinates and time stamps were continually noted in a data file. The resulting file was transferred to a computer program for further analysis.
The following parameters were calculated for the whole test phase (15 minutes): • Total distance travelled (m) • Use of available space (%) • Portion of time spent in the centre (%) • Portion of time spent in the corners (%) • Mean distance to the encounter mates (cm) • Distribution of spatial distance to the encounter mates • Dynamics of spatial distance to the encounter mates (cross-distance course) Social Behaviour
Raw data were provided as videotapes and protocol sheets of application and test time. From the videotapes the social behaviour of each rat was rated by an experienced ethologist using a list of predefined behavioural patterns. The observer was blind to the animal's treatment. The resulting file containing the time series of behavioural patterns was transferred to a computer program for further analysis.
The following parameters were calculated for the whole test phase (15 minutes): • Number of non-agonistic social acts (N) • Number of aggressive acts (N) • Number of defensive acts (N) • Time spent with non-agonistic social acts (%) • Time spent with aggressive acts (%) • Time spent with defensive acts (%) • Behavioural synchrony
To quantify inter-individual synchrony, coefficients of synchrony were calculated that base on rank correlation coefficients. For this purpose, the time series of behavioural patterns was subdivided into equidistant interval sections (here: 1 s intervals). To calculate synchrony coefficients, the user must define “pattern sets of interest”. Each set contained one or more behavioural patterns that were taken together for the analysis (e.g. “friendly contact” or “all kinds of social interaction”). […]

Setting [1] is: vs vehicle, Chlordiazepoxide 3 mg/kg i.p., Example 130b low and high dose (0.3 and 3.0 mg/kg p.o.).
The mark [2] stands for this setting: vs vehicle, Example 130b high dose (3.0 mg/kg p.o.).

For `NCc1c(-c2ccc(Cl)cc2Cl)ncn1Cc1ccsc1` [Example 130b, (4-(2,4-dichlorophenyl)-1-((thiophen-3-yl)methyl)-1H-imidazol-5-yl)methanamine], for the setting “tetradic encounter, Chlordiazepoxide 3 mg/kg i.p., Example 130b 0.3-3.0 mg/kg p.o.”, the locomotor activity result is recorded as “altered locomotor activity”. The “inter-individual synchrony of behaviour” value (vs vehicle, Chlordiazepoxide 3 mg/kg i.p., Example 130b 0.3, 1.0, 3.0 mg/kg p.o. (especially the high dose increased synchrony)) is listed as “strong effects”. Besides, under setting [1], the “distance to the encounter mates” value is reported as “significantly higher distance” and the “number of defensive acts” value was “statistically significant increase”. Besides, the “time spent in a distance of 75-100 cm to encounter mates” value (vs vehicle, Chlordiazepoxide 3 mg/kg i.p., Example 130b low and medium dose (0.3 and 1.0 mg/kg p.o.)) was “higher amount”. Moreover, the “time spent in a distance of 25-50 cm to encounter mates” value (vs vehicle, Chlordiazepoxide 3 mg/kg i.p., Example 130b low dose (0.3 mg/kg p.o.)) was “significantly lower amount of time”. In addition, under “vs vehicle, Chlordiazepoxide 3 mg/kg i.p., Example 130b medium dose (1.0 mg/kg p.o.)”, the “time spent with friendly (non-agonistic) social behaviour” value is recorded as “tended to increase”. For the same molecule, under setting [2], the “time spent in a distance of 50-75 cm to encounter mates” value was “higher amount”, the “time spent in a distance of less than 25 cm to encounter mates” value is “significantly lower amount of time”, the “time spent in the centre of the open field” value is listed as “significantly increased” and the “usage of available space” value is “significantly increased”. In addition, the “distance travelled during the first five minutes of the test” value (vs vehicle, Example 130b low and high dose (0.3 and 3.0 mg/kg p.o.)) is given as “statistically significant increase”. The “time spent in a distance of more than 100 cm to encounter mates” value (vs vehicle, Example 130b low dose (0.3 mg/kg p.o.)) is “higher amount”.

The values are drawn from patent publication US7728146B2, “Enzyme inhibitors” (Probiodrug AG, priority 2006, dated 2010).
